We go through 23 compounds from paper PMC7174758, “Synthesis and Biological Evaluation of HDAC Inhibitors With a Novel Zinc Binding Group” (Frontiers in Chemistry, 2020).

What is called IC50 is the concentration needed to halve the response being measured. Usually melting point stands for the temperature, or range, at which the solid turns liquid.

One data set concerns WI-38. Nature of the data set: MTT cytotoxicity assay, normal cell line WI-38. The note with it: Homo sapiens, WI-38, 48 h, read-out: IC50 WI-38. For orientation: Tetrazolium dyes change colour on reduction, which living cells bring about.
The test system of another data set is MCF-7. As to the kind of experiment: MTT anti-proliferative assay, MCF-7. The note with it: Homo sapiens, MCF7, 48 h, read-out: IC50 MCF-7.
For a further data set, the system named is A549. As to the kind of experiment: MTT anti-proliferative assay, A549. The note with it: Homo sapiens, A549, 48 h, read-out: IC50 A549.
The next data set relates to HepG2. Nature of the data set: MTT anti-proliferative assay, HepG2. The note with it: Homo sapiens, HepG2, 48 h, read-out: IC50 HepG2.
Another data set concerns Hela. Nature of the data set: MTT anti-proliferative assay, Hela. The note with it: Homo sapiens, 48 h, read-out: IC50 Hela.
A further data set concerns acetyl-α-tubulin. Nature of the data set: Western blot, acetylation of α-tubulin in Hela cells. Type of data set: cell-based, human. The note with it: 5 μM, reference drug. On the procedure: (§1) Afterwards, the Hela cells were collected using centrifugation, and were then lysed by the lysate, which were carried out further centrifugation at 12,000 rpm for 30 min. The protein of supernatant obtained by centrifugation was quantified using the BCA kit (Beijing Solarbio Science & Technology Co., Ltd.), and the protein extracts were mixed with the SDS-PAGE protein loading buffer (Beijing Solarbio Science & Technology Co., Ltd.), which were subject to 100°C water bath for 10 min to sufficiently denaturate. The gel was gelatinized using the SDS Gel Kit (Beijing Solarbio Science & Technology Co., Ltd.) and protein extracts were separated by protein SDS-polyacrylamide gel electrophoresis and then transferred to Immobilon-NC Membrane (Beijing Solarbio Science & Technology Co., Ltd.). After the blocking with 5% non-fat dried milk in TBS for 90 min at room temperature, the membranes were incubated overnight with specific primary antibodies (AFFINITY BIOSCIENCE) at 4°C, which were further incubated with secondary antibodies for 2 h after washing three times with TBST. The chemiluminescence analysis system was applied to label the target protein with a specific primary antibody and the target protein was detected using a specific antibody.

For the next data set, the system named is acetyl-histone H3. As to the kind of experiment: Western blot, acetylation of histone H3 in Hela cells. Type of data set: cell-based, human. The note with it: 5 μM, reference drug. As for the experimental part:
as §1

Protocol for A549: (§2) The antitumor bioactivities of the tittle compounds in vitro were firstly evaluated against four different human tumor cell lines [breast lung cancer (A549), cervical cancer (Hela), liver cancer (HepG2), breast cancer (MCF-7)] via MTT assay, and a normal cell line [human lung fibroblast (WI-38)] was applied to assess the safety of the synthesized compounds. […] In this study, the tested compounds were diluted to the required concentration with culture medium, and growth inhibitory effects against the cell lines of the tittle compounds were determined by MTT colorimetric assay. […] The microplate reader was adopted to record the absorbance at 490 nm for each well of the plates.
Protocol for HepG2: as §2
Protocol for MCF-7: as §2
Protocol for WI-38: as §2

Consider `Cc1ccc(C(=O)NCCCCCC(=O)NCC(C)O)cc1` (centres unmarked) [a6, N-(6-((2-hydroxypropyl)amino)-6-oxohexyl)-4-methylbenzamide], for which the melting point fell in the range of 114.2 to 116.8 °C. Moreover, the IC50 in the data set with WI-38 was determined as 97.2 ± 6.36 µM. Also, the IC50 with MCF-7 was found to be 44.8 ± 2.01 µM. Further, in the data set on A549, the IC50 came out at 39.2 ± 3.88 µM. For the same compound, in the data set with HepG2, the half-inhibitory concentration (IC50) was 74.9 ± 2.05 µM. In addition, the IC50 in the data set on Hela was 19.6 ± 3.92 µM.

Regarding `CC(O)CNC(=O)CCCCCNC(=O)c1ccc(C(F)(F)F)cc1` (centres unmarked) [a9, N-(6-((2-hydroxypropyl)amino)-6-oxohexyl)-4-(trifluoromethyl) benzamide], the melting point is 106.3 to 108.1 °C.

`Cc1cc(C)cc(C(=O)NCCCCCC(=O)NCCO)c1` [b7, N-(6-((2-hydroxyethyl)amino)-6-oxohexyl)-3,5-dimethylbenzamide]: the melting point was in the range of 110.1 to 111.8 °C. Besides, the half-inhibitory concentration (IC50) in the data set on WI-38 is 184 ± 7.16 µM. The IC50 in the data set with MCF-7 was 83.6 ± 23.2 µM. For the same compound, in the data set on A549, the IC50 came out at 32.3 ± 3.13 µM. Also, the half-maximal inhibitory concentration (IC50) in the data set on HepG2 came to 88 ± 9.39 µM. Moreover, the half-inhibitory concentration (IC50) with Hela came to 96.8 ± 2.09 µM.

As for `CC(O)CNC(=O)CCCCCNC(=O)c1ccc(Br)cc1` (centres unmarked) [a4, 4-bromo-N-(6-((2-hydroxypropyl)amino)-6-oxohexyl) benzamide], the melting point lay in the range of 112.4 to 114.7 °C.

In the case of `CC(O)CNC(=O)CCCCCNC(=O)c1ccc(Cl)cc1` (centres unmarked) [a2, 4-chloro-N-(6-((2-hydroxypropyl)amino)-6-oxohexyl) benzamide], the melting point is 93.9 to 95.7 °C.

As to `CN(C)c1ccc(C(=O)NCCCCCC(=O)NCCO)cc1` [b11, 4-(dimethylamino)-N-(6-((2-hydroxyethyl)amino)-6-oxohexyl) benzamide], the melting point lay in the range of 120.4 to 122.3 °C.

Take `O=C(CCCCCNC(=O)c1ccc(I)cc1)NCCO` [b5, N-(6-((2-hydroxyethyl)amino)-6-oxohexyl)-4-iodobenzamide]: the melting point was in the range of 150.4 to 150.9 °C. For the same compound, in the data set on WI-38, the 50% inhibitory concentration (IC50) came out at 130 ± 5.02 µM. The concentration for half-maximal inhibition (IC50) with MCF-7 stood at 64.5 ± 11.1 µM. The IC50 with A549 was determined as 48.3 ± 0.92 µM. Besides, in the data set on HepG2, the concentration for half-maximal inhibition (IC50) worked out at 90.3 ± 8.18 µM. Also, the IC50 with Hela came to 61 ± 5.31 µM.

`CC(O)CNC(=O)CCCCCNC(=O)c1ccc(I)cc1` (centres unmarked) [a5, N-(6-((2-hydroxypropyl)amino)-6-oxohexyl)-4-iodobenzamide] had a melting point of 148.7 to 150.2 °C. The half-inhibitory concentration (IC50) with WI-38 was determined as 158 ± 3.16 µM. In addition, in the data set with MCF-7, the half-inhibitory concentration (IC50) was determined as 63.2 ± 4.32 µM. In addition, the IC50 in the data set with A549 is 45.6 ± 2.81 µM. In addition, the concentration for half-maximal inhibition (IC50) in the data set with HepG2 stood at 68.9 ± 1.95 µM. Further, in the data set with Hela, the IC50 was 35.8 ± 2.43 µM.

`O=C(CCCCCCC(=O)Nc1ccccc1)NO` [SAHA, suberoylanilide hydroxamic acid, reference compound]: in the data set with acetyl-α-tubulin, the “acetylation level of α-Tubulin” value was “increase”. Also, the “acetylation level of histone H3” value in the data set on acetyl-histone H3 is “up-regulated”.

The compound `O=C(CCCCCNC(=O)c1ccc(Br)cc1)NCCO` [b4, 4-bromo-N-(6-((2-hydroxyethyl)amino)-6-oxohexyl) benzamide] had a melting point of 115.7 to 118.7 °C.

`O=C(CCCCCNC(=O)c1ccc(F)cc1)NCCO` [b2, 4-fluoro-N-(6-((2-hydroxyethyl)amino)-6-oxohexyl) benzamide] returned a melting point of 131.2 to 132.9 °C.

As for `O=C(CCCCCNC(=O)c1ccc2ccccc2c1)NCCO` [b12, N-(6-((2-hydroxyethyl)amino)-6-oxohexyl)-2-naphthamide], the melting point was 115.1 to 117.8 °C. Further, in the data set on WI-38, the half-maximal inhibitory concentration (IC50) stood at 161 ± 8.64 µM. The IC50 in the data set with MCF-7 amounted to 98.7 ± 7.67 µM. For the same compound, the IC50 in the data set with A549 was determined as 33.4 ± 2.12 µM. The IC50 in the data set on HepG2 is 37.6 ± 6.14 µM. The half-inhibitory concentration (IC50) with Hela amounted to 76.4 ± 6.78 µM.

In turn, `O=C(CCCCCNC(=O)c1ccc2c(c1)OCO2)NCCO` [b10, N-(6-((2-hydroxyethyl)amino)-6-oxohexyl) benzo[d][1,3] dioxole-5-carboxamide] had a melting point of 94.5 to 96.7 °C. Besides, the IC50 in the data set on WI-38 amounted to 193 ± 6.53 µM. In addition, the IC50 with MCF-7 was determined as 93.2 ± 3.53 µM. In the data set on A549, the concentration for half-maximal inhibition (IC50) is 28.2 ± 0.87 µM. Besides, in the data set with HepG2, the half-inhibitory concentration (IC50) came out at 33.9 ± 2.71 µM. Moreover, the half-inhibitory concentration (IC50) in the data set with Hela amounted to 38.1 ± 1.28 µM.

Regarding `Cc1ccc(C(=O)NCCCCCC(=O)NCCO)cc1` [b6, N-(6-((2-hydroxyethyl)amino)-6-oxohexyl)-4-methylbenzamide], the concentration for half-maximal inhibition (IC50) in the data set with WI-38 worked out at 144 ± 8.05 µM; with MCF-7, 99.2 ± 1.9 µM; in the data set on A549 it was 26.9 ± 4.79 µM; in the data set on HepG2, 77.2 ± 4.43 µM; in the data set on Hela it was 59.7 ± 2.67 µM.

In turn, `CC(O)CNC(=O)CCCCCNC(=O)c1ccc(-c2ccccc2)cc1` (centres unmarked) [a10, N-(6-((2-hydroxypropyl)amino)-6-oxohexyl)-[1, 1’-biphenyl]-4-carboxamide] displayed a melting point of 140.3 to 142.6 °C. For the same compound, the concentration for half-maximal inhibition (IC50) in the data set on WI-38 was 126 ± 7.83 µM. Moreover, the half-maximal inhibitory concentration (IC50) with MCF-7 came out at 48.4 ± 2.21 µM. In addition, the IC50 in the data set with A549 is 19.8 ± 2.11 µM. For the same compound, the 50% inhibitory concentration (IC50) in the data set on HepG2 was found to be 26.8 ± 3.22 µM. For the same compound, in the data set with Hela, the IC50 was 38.4 ± 1.01 µM.

`CC(O)CNC(=O)CCCCCNC(=O)c1ccc([N+](=O)[O-])cc1` (centres unmarked) [a7, N-(6-((2-hydroxypropyl)amino)-6-oxohexyl)-4-nitrobenzamide] returned a melting point of 124.3 to 126.1 °C. The half-maximal inhibitory concentration (IC50) in the data set with WI-38 came to 211 ± 4.32 µM. Also, the IC50 in the data set on MCF-7 was 58.7 ± 3.86 µM. The IC50 in the data set on A549 was 43.8 ± 4.82 µM. Also, in the data set with HepG2, the IC50 came to 88.3 ± 8.64 µM. Also, the half-maximal inhibitory concentration (IC50) in the data set on Hela worked out at 25.8 ± 8.93 µM.

As for `CC(O)CNC(=O)CCCCCNC(=O)c1ccc(F)cc1` (centres unmarked) [a1, 4-fluoro-N-(6-((2-hydroxypropyl)amino)-6-oxohexyl) benzamide], the melting point lay in the range of 99.3 to 100.8 °C.

`CC(O)CNC(=O)CCCCCNC(=O)c1ccc2c(c1)OCO2` (centres unmarked) [a12, N-(6-((2-hydroxypropyl)amino)-6-oxohexyl) benzo [d][1,3] dioxole-5-carboxamide] came in with a melting point of 123.6 to 125.3 °C. The IC50 with WI-38 worked out at 147 ± 3.82 µM. For the same compound, the IC50 in the data set on MCF-7 was found to be 44.6 ± 4.62 µM. The IC50 with A549 is 28.4 ± 2.01 µM. In the data set with HepG2, the half-maximal inhibitory concentration (IC50) was 37.6 ± 2.89 µM. In the data set with Hela, the concentration for half-maximal inhibition (IC50) amounted to 35.6 ± 0.89 µM.

Turning to `CC(O)CNC(=O)CCCCCNC(=O)c1ccccc1Cl` (centres unmarked) [a3, 2-chloro-N-(6-((2-hydroxypropyl)amino)-6-oxohexyl) benzamide], the melting point fell in the range of 110.2 to 113.6 °C.

`O=C(CCCCCNC(=O)c1ccccc1)NCCO` [b1, N-(6-((2-hydroxyethyl)amino)-6-oxohexyl) benzamide] returned a melting point of 111.2 to 114.5 °C. Further, the concentration for half-maximal inhibition (IC50) in the data set with WI-38 is 194 ± 5.32 µM. The IC50 in the data set with MCF-7 came out at 94.3 ± 15.3 µM. In addition, the IC50 with A549 is 33.1 ± 0.96 µM. For the same compound, the IC50 in the data set on HepG2 is 84.5 ± 1.33 µM. Moreover, in the data set with Hela, the IC50 was found to be 90.4 ± 2.21 µM.

`O=C(CCCCCNC(=O)c1ccc(Cl)cc1)NCCO` [b3, 4-chloro-N-(6-((2-hydroxyethyl)amino)-6-oxohexyl) benzamide] returned a melting point of 112.4 to 115.9 °C.

With `O=C(CCCCCNC(=O)c1ccc(C(F)(F)F)cc1)NCCO` [b9, N-(6-((2-hydroxyethyl)amino)-6-oxohexyl)-4-(trifluoromethyl) benzamide], the melting point was 105 to 106.3 °C.

`CC(O)CNC(=O)CCCCCNC(=O)c1ccc2ccccc2c1` (centres unmarked) [a11, N-(6-((2-hydroxypropyl)amino)-6-oxohexyl)-2-naphthamide] came in with a melting point of 111.6 to 113.6 °C. Moreover, the IC50 in the data set with WI-38 came out at 109 ± 4.63 µM. For the same compound, the half-inhibitory concentration (IC50) in the data set on MCF-7 worked out at 38.4 ± 2.12 µM. For the same compound, the half-inhibitory concentration (IC50) in the data set with A549 is 26.6 ± 2.81 µM. Also, the 50% inhibitory concentration (IC50) in the data set on HepG2 came to 29.2 ± 3.22 µM. Also, the half-maximal inhibitory concentration (IC50) in the data set on Hela was 21.8 ± 2.42 µM.
